Values after ≈ are worked out from the molar mass of the structure shown.
How the values were obtained:
P. berghei ANKA strain [1] = experiment: treatment: 3x3 mg/kg and 3x1 mg/kg po divided doses in infected mice; assay type: in vivo, Plasmodium berghei; details: percent reduction of parasitemia day 4
Summary of the method: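 NMRI mice infected i.v. with 2×10^7 P. berghei ANKA-parasitized erythrocytes on day 0, then dosed orally in SSV vehicle at 3×3 or 3×1 mg/kg on days 1–3. Day-4 Giemsa smears gave percent parasitemia reduction versus untreated controls; survival to day 30 counted as cure.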

[2] = system: Schistosoma mansoni adult schistosomes (49-day-old); experiment: effect on adult schistosomes (49-day-old) in mice; assay type: in vivo; details: single 400 mg/kg per os
Description: Mice were infected with 100 Schistosoma mansoni cercariae […]. Each group was treated per os with OZ compounds at single doses of 200, 400, and 600 mg/kg. […] All groups were killed 4 weeks after treatment and the liver and intestine were removed and separated. The liver and intestine were compressed and alive male and female worms could be seen and counted.

[3] = system: ANKA strain of Plasmodium berghei; experiment: single dose ED50/ED90/ED99 determinations in infected mice; assay type: in vivo; details: single dose po in SSV, mice, percent reduction in parasitemia on day three post-infection
Description: In the single dose ED50/ED90/ED99 determinations, Moro SPF or NMRI mice (group of three) infected with the ANKA strain of Plasmodium berghei were treated on day one post-infection. […] The SSV consists of 0.5% w/v CMC, 0.5% v/v benzyl alcohol, 0.4% v/v Tween 80, and 0.9% w/v sodium chloride in water. Antimalarial activity was measured by percent reduction in parasitemia on day three post-infection. The ED50/ED90 values were calculated by nonlinear fitting.

Schistosoma japonicum = experiment: effect in mice infected with Schistosoma japonicum; assay type: in vivo; details: age of worm 35 days, 400 mg/kg x 1
[4] = system: Schistosoma mansoni 21-day-old schistosomules; experiment: effect on 21-day-old schistosomules in mice; assay type: in vivo; details: single 200 mg/kg per os, female mice
Description: All groups were killed 4 weeks after treatment and the liver and intestine were removed and separated. The liver and intestine were compressed and alive male and female worms could be seen and counted. The effect of the compounds was evaluated by mean total and female worm burden.

P. berghei ANKA strain [5] = experiment: prophylactic activity, single 100 mg/kg po dose before infection; assay type: in vivo, Plasmodium berghei; details: reduction of parasitemia day 3 post-infection
Description: Moro NMRI male mice (Fü Albino specific pathogen free) weighing 18±2 g were infected intravenously (i.v.) with 2×10^7 P. berghei ANKA strain-infected erythrocytes from donor mice on day 0 of the experiment. From donor mice with circa 30% parasitemia, heparinized blood was taken and diluted in physiological saline to 10^8 parasitized erythrocytes per ml. An aliquot (0.2 ml) of this suspension was injected i.v. into experimental and control groups of mice. In untreated control mice, parasitemia rose regularly to 40 to 50% by day 3 post-infection and 70 to 80% by day 4 post-infection. The mice died between days 5 and 7 post-infection. Throughout the experiments, mice were kept in groups of three or five animals in Makrolon type II cages in an air-conditioned animal room at 22 to 23° C. A diet with p-aminobenzoic acid (PABA) of 45 mg (NAFAG FUTTER© food N^o 9009 PAB-45) per kg of body weight, and tap water is available ad libitum.
OZ compounds were prepared at an appropriate concentration, either as a solution or a suspension containing SSV (0.5% w/v CMC, 0.5% v/v benzyl alcohol, 0.4% v/v Tween 80, and 0.9% w/v sodium chloride in water). They were administered per os (p.o.) in a total volume of 0.01 ml per gram of mouse. The activity of the compound was determined by a variety of methods outlined in subsequent sections. Survival time was also recorded, and survival to day 30 post-infection was considered to be a cure.
Prophylactic activities of the compounds were compared after administering po single dose of 100 mg/kg to different groups of five animals at various times before infection. All groups including an untreated control group, were then infected at the same time. Parasitemia was determined for each animal on day 3 post-infection, and percent of reduction of the level of parasitemia compared to levels for animals given no drug is determined.

[6] = system: P. falciparum K1 strain (Thailand resistant to chloroquine); experiment: semiautomated microdilution assay, [3H]-hypoxanthine incorporation, K1 strain; assay type: cell-based, Plasmodium falciparum; details: K1 strain, 72 h incubation
Summary of the method: (§1)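 Asynchronous stock cultures → intraerythrocytic forms; semiautomated microdilution; IC50 by logit regression.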

[7] = system: parasitemia (malaria infection); experiment: onset of action and recrudescence experiments; assay type: in vivo; details: single 100 mg/kg po (SSV) on day +3 post-infection; recrudescence = >5% parasitemia; followed up to 60 days; (n/5) = animals
Description: The onset of drug action was determined after a single fixed dose of 100 mg/kg (SSV vehicle) po to groups of five animals on day +3 post-infection (day 0).

[8] = system: P. falciparum NF54 strain (sensitive to standard antimalarials); experiment: semiautomated microdilution assay, [3H]-hypoxanthine incorporation, NF54 strain; assay type: cell-based, Plasmodium falciparum; details: NF54 strain, 72 h incubation
Summary of the method: as §1

[9] = system: ANKA strain of P. berghei; experiment: single dose STI in vivo screen in infected mice; design: species or system Plasmodium berghei
Summary of the method: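 Groups of 3-5 Moro SPF or NMRI mice infected with the ANKA strain of P. berghei received a single dose of trioxolane on day one post-infection. The compound was given in 3% ethanol and 7% Tween 80 or in SSV (0.5% w/v CMC, 0.5% v/v benzyl alcohol, 0.4% v/v Tween 80, 0.9% w/v sodium chloride in water). Antimalarial activity was scored as percent reduction in parasitemia on day three and as survival time versus untreated controls. Survival to day 30 counted as cure.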

dosing in rats = assay type: in vivo; details: rat
Source text: (§2) Artesunate is listed as a reference compound.

dosing in dogs = assay type: in vivo; details: dog
Source text: as §2

For `CO[C@H]1O[C@@H]2O[C@@]3(C)CC[C@H]4[C@H](C)CC[C@@H]([C@H]1C)[C@@]24OO3` [AM, artemether, reference compound], the “Activity (%) p.o. SSV” value (P. berghei ANKA strain [1]; 3 × 1 mg/kg days 1, 2, 3 post-infection) was 51%, the “Activity (%) p.o. SSV” value (P. berghei ANKA strain [1]; 3 × 3 mg/kg days 1, 2, 3 post-infection) was 86% and the “% reduction of adult worms growth at day 49 after per os application of 400 mg/kg, TWR (%)” value [2] was 53%. For the same molecule, the ED90 [3] was 4.2 mg/kg, the ED99 [3] was 7.1 mg/kg and the “FWRR/% (female worm reduction rate)” value (Schistosoma japonicum) was 71%. For the same molecule, the “Mice without ♀ worm” value (Schistosoma japonicum) was 0/7, the “WRR/% (worm reduction rate)” value (Schistosoma japonicum) was 62% and the “MTWB/x ± SD (mean total worm burden)” value (Schistosoma japonicum; control 26.6 ± 4.2) was 10.1 ± 4.4. For the same molecule, the “% reduction of schistosomule growth at day 21 after per os application of 200 mg/kg, FWR (%)” value [4] was “(n4) 85%”, the “% reduction of schistosomule growth at day 21 after per os application of 200 mg/kg, TWR (%)” value [4] was “(n4) 85%” and the “Prophylactic Activity (%)” value (P. berghei ANKA strain [5]; single 100 mg/kg po 24 h before infection) was 0%. The “Prophylactic Activity (%)” value (P. berghei ANKA strain [5]; single 100 mg/kg po at 0 h) was 100%.

In the case of `O=C(C[C@H]1CC[C@]2(CC1)OOC1(O2)C2CC3CC(C2)CC1C3)NO` (stereo partly drawn) [OZ175], the “IC50 (ng/ml) K1” value [6] is reported as 1.4 ng/mL (≈ 4.15 nM), the “Time of Recrudescence” value [7] is reported as 13.0 days and the ED50 [3] is reported as 3.5 mg/kg. For the same molecule, the ED90 [3] was 6.2 mg/kg, the ED99 [3] was 9.9 mg/kg and the “IC50 (ng/ml) NF54” value [8] was 2.0 ng/mL (≈ 5.93 nM).

For `NC(=O)CNC[C@H]1CC[C@]2(CC1)OOC1(O2)C2CC3CC(C2)CC1C3` (stereo partly drawn) [OZ256], the “IC50 (ng/ml) K1” value [6] was 0.3 ng/mL (≈ 0.856 nM), the “Activity (%) po” value ([9]; percent reduction in parasitemia day 3 post-infection, single 10 mg/kg po in 3% ethanol and 7% Tween 80, mice) was 99.70% and the “Activity (%) sc” value ([9]; percent reduction in parasitemia day 3 post-infection, single 10 mg/kg sc in 3% ethanol and 7% Tween 80, mice) was 99.95%. For the same molecule, the “Activity (%) SSVpo” value ([9]; percent reduction in parasitemia day 3 post-infection, single po dose in standard suspending vehicle (SSV), mice) was 99.67%, the “Survival (days) po” value ([9]; single 10 mg/kg po in 3% ethanol and 7% Tween 80, untreated control 5.6 ± 0.3) was 8.7 days and the “Survival (days) sc” value ([9]; single 10 mg/kg sc in 3% ethanol and 7% Tween 80, untreated control 5.6 ± 0.3) was 9.7 days. The “Survival (days) SSVpo” value ([9]; single po dose in SSV, untreated control 5.6 ± 0.3) was 8.7 days, the “IV t1/2 (10 mg/kg)” value (dosing in rats; IV 10 mg/kg) was 1.57 h and the “Oral Bioavailability 10 mg/kg” value (dosing in rats; oral 10 mg/kg) was 18.6%. For the same molecule, the “Oral Bioavailability 25 mg/kg” value (dosing in rats; oral 25 mg/kg) was 51.9%, the “Oral t1/2 (25 mg/kg)” value (dosing in rats; oral 25 mg/kg) was 1.22 h and the “% reduction of adult worms growth at day 49 after per os application of 400 mg/kg, TWR (%)” value [2] was 10%. The “adult worms at day 49, per os 400 mg/kg, DEAD WORM (%)” value [2] was 19%, the “IV t1/2 (10 mg/kg)” value (dosing in dogs; IV 10 mg/kg) was 1.42 h and the “Oral t1/2 (10 mg/kg)” value (dosing in dogs; oral 10 mg/kg) was 1.38 h. For the same molecule, the “Oral Bioavailability 10 mg/kg” value (dosing in dogs; oral 10 mg/kg, OZ 279, OZ 256, OZ 209 values flagged (V)) was 42.0%, the “Oral Bioavailability 25 mg/kg” value (dosing in dogs; oral 25 mg/kg, OZ 279, OZ 256, OZ 209 values flagged (V)) was 38.3% and the “% reduction of schistosomule growth at day 21 after per os application of 200 mg/kg, FWR (%)” value [4] was 86%. The “% reduction of schistosomule growth at day 21 after per os application of 200 mg/kg, TWR (%)” value [4] was 85% and the “IC50 (ng/ml) NF54” value [8] was 0.2 ng/mL (≈ 0.571 nM).
